pIC50: −log10 of the molar value.

What all share (assay type): functional, cell-based
The test system of assay [1] is MGC-803. The assay is described as follows: Antiproliferative activity against human MGC-803 cells assessed as inhibition of cell growth by SRB assay. In general terms: The SRB assay estimates cell density from bound dye.
The subject of assay [2] is MCF7. The assay is described as follows: Antiproliferative activity against human MCF7 cells assessed as inhibition of cell growth by SRB assay.
Assay [3] relates to ECa-109 cell line. The experiment in a line: Antiproliferative activity against human EC109 cells assessed as inhibition of cell growth by SRB assay.
The test system of assay [4] is HeLa. The assay is described as follows: Antiproliferative activity against human HeLa cells assessed as inhibition of cell growth by SRB assay.

For the compound `O=C1C=C(NC2CCCCC2)C(=O)c2c1nc1n2[C@H]2OC[C@@H](O)[C@H]2OC1`, the pIC50 is < 5.10 in assay [1], < 5.10 in assay [2], < 4.80 in assay [3] and < 4.80 in assay [4].

In general, pIC50 refers to the IC50 on a negative log10 scale, so that one unit is a factor of ten.

Values taken from ChEMBL document CHEMBL5113408, “Design, synthesis and antitumour activity of novel 5(6)-amino-benzimidazolequinones containing a fused morpholine” (Eur J Med Chem, 2022).
